# Source: ChEMBL document CHEMBL3526124, “Optimized experimental design for the estimation of enzyme kinetic parameters: an experimental evaluation” (Drug Metab Dispos, 2012)
# How the values were obtained:
# Liver microsome [1] = assay: Drug metabolism in human liver microsomes assessed as intrinsic clearance per mg protein by optimal design approach
# [2] = Drug metabolism in human liver microsomes by optimal design approach
# Liver microsome [3] = assay: Drug metabolism in human liver microsomes assessed as intrinsic clearance per mg protein by multiple depletion curves method
# [4] = Drug metabolism in human liver microsomes by multiple depletion curves method
# Cytochrome P450 2D6 [5] = biological target: T1, Cytochrome P450 2D6 (Homo sapiens, UniProt P10635); assay: Drug metabolism in assessed as human CYP2D6-mediated intrinsic clearance per mg protein; assay type: ADME; conditions: recombinant enzyme
# Cytochrome P450 2D6 [6] = biological target: T1, Cytochrome P450 2D6; assay: Drug metabolism in assessed as human CYP2D6-mediated maximum rate of reaction per mg protein; assay type: ADME; conditions: recombinant enzyme
# CYP2D6 = CYP2D6 (Homo sapiens, UniProt P10635); assay: Drug metabolism in assessed as human CYP2D6-mediated metabolism; assay type: ADME; conditions: recombinant enzyme
# Cytochrome P450 2C9 [7] = biological target: T2, Cytochrome P450 2C9 (Homo sapiens, UniProt P11712); assay: Drug metabolism in assessed as human CYP2C9-mediated maximum rate of reaction per mg protein; assay type: ADME; conditions: recombinant enzyme
# CYP2C9 = CYP2C9 (Homo sapiens, UniProt P11712); assay: Drug metabolism in assessed as human CYP2C9-mediated metabolism; assay type: ADME; conditions: recombinant enzyme
# Cytochrome P450 2C9 [8] = biological target: T2, Cytochrome P450 2C9; assay: Drug metabolism in assessed as human CYP2C9-mediated intrinsic clearance per mg protein; assay type: ADME; conditions: recombinant enzyme
# [9] = Drug metabolism in assessed as human CYP3A-mediated intrinsic clearance per mg protein; assay type: ADME; conditions: recombinant enzyme
# [10] = Drug metabolism in assessed as human CYP3A-mediated maximum rate of reaction per mg protein; assay type: ADME; conditions: recombinant enzyme
# CYP3A = assay: Drug metabolism in assessed as human CYP3A-mediated metabolism; assay type: ADME; conditions: recombinant enzyme
# Cytochrome P450 1A2 [11] = biological target: T3, Cytochrome P450 1A2 (Homo sapiens, UniProt P05177); assay: Drug metabolism in assessed as human CYP1A2-mediated intrinsic clearance per mg protein; conditions: recombinant enzyme
# T3 sequence (P05177 whole entry): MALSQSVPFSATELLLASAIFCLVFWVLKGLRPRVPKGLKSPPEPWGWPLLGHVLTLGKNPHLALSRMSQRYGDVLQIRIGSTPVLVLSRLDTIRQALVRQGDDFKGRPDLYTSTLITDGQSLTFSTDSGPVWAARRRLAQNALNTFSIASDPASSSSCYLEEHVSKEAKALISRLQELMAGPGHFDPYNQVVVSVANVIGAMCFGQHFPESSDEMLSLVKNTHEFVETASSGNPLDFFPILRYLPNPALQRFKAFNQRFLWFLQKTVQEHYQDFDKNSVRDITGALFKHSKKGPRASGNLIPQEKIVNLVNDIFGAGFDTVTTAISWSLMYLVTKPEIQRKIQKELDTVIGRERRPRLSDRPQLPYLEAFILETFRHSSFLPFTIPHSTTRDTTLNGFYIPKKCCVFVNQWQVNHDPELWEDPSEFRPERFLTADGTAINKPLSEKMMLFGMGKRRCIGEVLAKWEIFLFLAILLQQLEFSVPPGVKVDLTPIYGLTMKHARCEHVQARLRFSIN
# Cytochrome P450 1A2 [12] = biological target: T3, Cytochrome P450 1A2; assay: Drug metabolism in assessed as human CYP1A2-mediated maximum rate of reaction per mg protein; assay type: ADME; conditions: recombinant enzyme
# not read [13] = substrate: CN(C)CCCN1c2ccccc2CCc2ccccc21; assay: not read
# not read [14] = substrate: CCc1cccc2cc(C(O)CNC(C)(C)C)oc12; assay: not read
# T2 sequence (P11712 whole entry): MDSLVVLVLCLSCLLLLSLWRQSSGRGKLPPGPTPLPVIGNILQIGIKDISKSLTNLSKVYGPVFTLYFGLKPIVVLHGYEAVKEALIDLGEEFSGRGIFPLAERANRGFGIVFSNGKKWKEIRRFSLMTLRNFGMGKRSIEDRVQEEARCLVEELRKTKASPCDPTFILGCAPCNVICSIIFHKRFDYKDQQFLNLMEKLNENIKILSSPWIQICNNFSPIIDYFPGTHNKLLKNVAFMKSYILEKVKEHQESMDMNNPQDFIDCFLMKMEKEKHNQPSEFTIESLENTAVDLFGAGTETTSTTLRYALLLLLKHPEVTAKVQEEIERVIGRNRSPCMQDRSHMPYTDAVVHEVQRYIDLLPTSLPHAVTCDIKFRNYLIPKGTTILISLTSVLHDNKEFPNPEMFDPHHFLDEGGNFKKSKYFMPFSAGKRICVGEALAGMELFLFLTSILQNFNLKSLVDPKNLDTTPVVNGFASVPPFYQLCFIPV
# Chain of CYP2C9 (P11712 whole entry): as above
Molecule,CLH (Liver microsome [1]),Km ([2]; microsomes),CLH (Liver microsome [3]),Km ([4]; microsomes),Km ([2]; liver microsomes),Km ([4]; liver microsomes),other results
CCN(CC)Cc1cc(Nc2ccnc3cc(Cl)ccc23)ccc1O [AMODIAQUINE],224 µL/min/g,5.17 µM,829 µL/min/g,3.33 µM,,,
CCc1cccc2cc(C(O)CNC(C)(C)C)oc12 (stereo not drawn) [BUFURALOL],32.3 µL/min/g,12.8 µM,31 µL/min/g,11.7 µM,,,clearance (Cytochrome P450 2D6 [5]): 3 µL/min/mg
COc1ccc2c(c1)[C@]13CCCC[C@@H]1[C@H](C2)N(C)CC3 [DEXTROMETHORPHAN],54.2 µL/min/g,,84.1 µL/min/g,,6.32 µM,7.16 µM,Vmax (Cytochrome P450 2D6 [6]): 140 pmol/min; Km (CYP2D6): 1400 nM
O=C(O)Cc1ccccc1Nc1c(Cl)cccc1Cl [DICLOFENAC],,8.55 µM,,11.6 µM,,,Vmax (Cytochrome P450 2C9 [7]): 710 pmol/min; Km (CYP2C9): 1700 nM; clearance (Cytochrome P450 2C9 [8]): 130 µL/min/mg
COc1ccc([C@@H]2Sc3ccccc3N(CCN(C)C)C(=O)[C@@H]2OC(C)=O)cc1 [DILTIAZEM],75.4 µL/min/g,,47.6 µL/min/g,,9.8 µM,10 µM,
Cc1ncc2n1-c1ccc(Cl)cc1C(c1ccccc1F)=NC2 [MIDAZOLAM],220 µL/min/g,3.04 µM,717 µL/min/g,1.26 µM,,,CL [9]: 159 µL/min/g; Vmax [10]: 636 pmol/min; Km (CYP3A): 1200 nM
CCOc1ccc(NC(C)=O)cc1 [PHENACETIN],50.4 µL/min/g,,39.5 µL/min/g,,22.6 µM,22.6 µM,CL (Cytochrome P450 1A2 [11]): 14.6 µL/min/g; Vmax (Cytochrome P450 1A2 [12]): 322 pmol/min
Cytochrome P450 1A2 (Homo sapiens) (protein) MALSQSVPFSATELLLASAIFCLVFWVLKGLRPRVPKGLKSPPEPWGWPLLGHVLTLGKNPHLALSRMSQRYGDVLQIRIGSTPVLVLSRLDTIRQALVRQGDDFKGRPDLYTSTLITDGQSLTFSTDSGPVWAARRRLAQNALNTFSIASDPASSSSCYLEEHVSKEAKALISRLQELMAGPGHFDPYNQVVVSVANVIGAMCFGQHFPESSDEMLSLVKNTHEFVETASSGNPLDFFPILRYLPNPALQRFKAFNQRFLWFLQKTVQEHYQDFDKNSVRDITGALFKHSKKGPRASGNLIPQEKIVNLVNDIFGAGFDTVTTAISWSLMYLVTKPEIQRKIQKELDTVIGRERRPRLSDRPQLPYLEAFILETFRHSSFLPFTIPHSTTRDTTLNGFYIPKKCCVFVNQWQVNHDPELWEDPSEFRPERFLTADGTAINKPLSEKMMLFGMGKRRCIGEVLAKWEIFLFLAILLQQLEFSVPPGVKVDLTPIYGLTMKHARCEHVQARLRFSIN,,,,,,,Km (not read [13]): 5 µM; Vmax (not read [13]): 0.000117 µmol/min
Cytochrome P450 2D6 (Homo sapiens) (protein) MGLEALVPLAVIVAIFLLLVDLMHRRQRWAARYPPGPLPLPGLGNLLHVDFQNTPYCFDQLRRRFGDVFSLQLAWTPVVVLNGLAAVREALVTHGEDTADRPPVPITQILGFGPRSQGVFLARYGPAWREQRRFSVSTLRNLGLGKKSLEQWVTEEAACLCAAFANHSGRPFRPNGLLDKAVSNVIASLTCGRRFEYDDPRFLRLLDLAQEGLKEESGFLREVLNAVPVLLHIPALAGKVLRFQKAFLTQLDELLTEHRMTWDPAQPPRDLTEAFLAEMEKAKGNPESSFNDENLRIVVADLFSAGMVTTSTTLAWGLLLMILHPDVQRRVQQEIDDVIGQVRRPEMGDQAHMPYTTAVIHEVQRFGDIVPLGVTHMTSRDIEVQGFRIPKGTTLITNLSSVLKDEAVWEKPFRFHPEHFLDAQGHFVKPEAFLPFSAGRRACLGEPLARMELFLFFTSLLQHFSFSVPTGQPRPSHHGVFAFLVSPSPYELCAVPR,,,,,,,Km (not read [14]): 8.2 µM; Vmax (not read [14]): 7e-05 µmol/min
Cytochrome P450 2C19 (Homo sapiens) (protein) MDPFVVLVLCLSCLLLLSIWRQSSGRGKLPPGPTPLPVIGNILQIDIKDVSKSLTNLSKIYGPVFTLYFGLERMVVLHGYEVVKEALIDLGEEFSGRGHFPLAERANRGFGIVFSNGKRWKEIRRFSLMTLRNFGMGKRSIEDRVQEEARCLVEELRKTKASPCDPTFILGCAPCNVICSIIFQKRFDYKDQQFLNLMEKLNENIRIVSTPWIQICNNFPTIIDYFPGTHNKLLKNLAFMESDILEKVKEHQESMDINNPRDFIDCFLIKMEKEKQNQQSEFTIENLVITAADLLGAGTETTSTTLRYALLLLLKHPEVTAKVQEEIERVIGRNRSPCMQDRGHMPYTDAVVHEVQRYIDLIPTSLPHAVTCDVKFRNYLIPKGTTILTSLTSVLHDNKEFPNPEMFDPRHFLDEGGNFKKSNYFMPFSAGKRICVGEGLARMELFLFLTFILQNFNLKSLIDPKDLDTTPVVNGFASVPPFYQLCFIPV,,,,,,,Km (not read [13]): 5 µM; Vmax (not read [13]): 0.000117 µmol/min
